These are literature values, as cited in patent publication US9982018B2, “Amatoxin derivatives” ([…] GMBH, priority 2013, dated 2018).

Data set [1] addresses RNA polymerase II (Homo sapiens, UniProt P24928). The note with it: read-out: KD of complex with RNA polymerase II.
For data set [2] the following is noted: naturally occurring amatoxin lacking the γ-hydroxyl group.

A word on the Kd: it is the equilibrium constant for the complex coming apart. On to amanitin, for which the dissociation constant (Kd) in data set [1] was 3 nM.

In the case of amanullin, in data set [2], the toxicity entry is recorded as “considerably reduced toxicity”.
